Experimental data from patent US8778890B2, “Leptin antagonist and methods of use” (Temple University—of the Commonwealth System of Higher …, priority 2009, dated 2014).
Read-outs that look alike come from different tables or passages of the source. Values belong to the molecule of their own block, whether it stands above or below them. Where a SMILES comes first, the peptide text is derived from it. Where no end group is shown, it is not given here. [ ]: non-standard residue; d: D form. NMeR = CN[C@@H](CCCNC(=N)N)C(=O)O; aThr = C[C@H](O)[C@H](N)C(=O)O; Nva = CCC[C@H](N)C(=O)O; Ahx = NCCCCCC(=O)O; βAla = NCCC(=O)O

Experiments:
[1] = mouse, in vivo, ip
serum stability = format: in vitro ADME, mouse
Protocol: The stabilities of the peptides of amino acid sequence SEQ ID NO:4 and SEQ ID NO:49 were determined in 25% serum, and 100% serum, in terms of their half-lives. For serum stability studies, […] of an aqueous peptide stock solution, containing about 0.8 mg/mL peptide, were added to 2.5 mL of 25% or 100% aqueous pooled mouse serum. The peptide-serum mixture was thermostated at 37° C. After 0 min, 45 min, 60 min, 90 min, 2 h, 4 h, and 8 h, three 210 μL of the samples of peptides were taken and precipitated by the addition of 40 μL of 15% aqueous trichloroacetic acid. The samples were stored at 4° C. for 20 min and centrifuged. The supernatants were immediately frozen in dry-ice, and […], of each were analyzed on RP-HPLC and/or MALDI-MS.

[2] = tested on: ObR-positive cancer cells (brain and breast); format: cell-based
Protocol: The effect of the peptides of the invention on the proliferation of ObR-positive cancer cells (brain and breast) in the presence (IC50) or absence (EC50) of exogenous leptin protein (6 nM) is summarized in Table 1.

[3] = tested on: MCF-7 breast cancer cells (ObR-positive); format: cell-based, human
Description: (§1) Immunol. Methods 94:57-63).

[4] = chronic and acute toxicity; format: in vivo, mice
Protocol: The peptide of amino acid sequence SEQ ID NO:4 was evaluated for chronic and acute toxicity in mice. Three female Black/6 mice received intraperitoneally either bolus 0.5 mg/kg or 2 mg/kg or 30 mg/kg peptide SEQ ID NO:4, or 0.5 mg/kg/day or 2 mg/kg/day peptide SEQ ID NO:4 over a 10 day period. Two days after termination of the experiments, the mice were weighed and sacrificed, and the livers, brains, spleens and kidneys were weighed.

[5] = tested on: LN229 (glioma) cells (ObR-positive); format: cell-based; details: 2 h
Description: as §1

[6] = weight gain of growing mice; format: in vivo
Protocol: Six weeks old Black/6 mice (mixed race) and F344 female rats were grown on regular lab chow and had access to food and water ad libidum. Treatment started at day 0, with four mice (2 males and 2 females) and 4 rats per group. The animals received the peptide of amino acid sequence SEQ ID NO:4 or physiological salt solution once daily. The mice and rats were dosed according to the following schedule: • Group 1: Mice, salt solution intraperitoneally; • Groups 2 and 3: Mice 0.1 mg/kg/day or 0.01 mg/kg/day peptide of amino acid sequence SEQ ID NO:4 intraperitoneally in 100 microliter salt solution; • Groups 4 and 5: Mice 1 mg/kg/day or 0.1 mg/kg/day peptide of amino acid sequence SEQ ID NO:4 subcutaneously (under the shoulder blade) in 100 microliter salt solution; • Groups 6 and 7: Mice 10 mg/kg/day or 1 mg/kg/day peptide of amino acid sequence SEQ ID NO:4 orally in 100 microliter salt solution; • Group 8: Rats, 10 microliter salt solution, intranasally; • Group 9: Rats. 0.1 mg/kg/day peptide of amino acid sequence SEQ ID NO:4 intranasally in 10 microliter salt solution. […]
The therapeutic utility of full ObR antagonists was studied further by the ability of peptide of amino acid sequence SEQ ID NO:4 to increase the appetite of normal, growing mice as measured by accelerated weight gain and increased food intake upon various modes of peptide administration. […]

[7] = organ toxicity testing after 14 days of treatment (Example 4); format: in vivo, mice and rats; details: any conditions
Protocol: Six weeks old Black/6 mice (mixed race) and F344 female rats were grown on regular lab chow and had access to food and water ad libidum. Treatment started at day 0, with four mice (2 males and 2 females) and 4 rats per group. The animals received the peptide of amino acid sequence SEQ ID NO:4 or physiological salt solution once daily. The mice and rats were dosed according to the following schedule: • Group 1: Mice, salt solution intraperitoneally; • Groups 2 and 3: Mice 0.1 mg/kg/day or 0.01 mg/kg/day peptide of amino acid sequence SEQ ID NO:4 intraperitoneally in 100 microliter salt solution; • Groups 4 and 5: Mice 1 mg/kg/day or 0.1 mg/kg/day peptide of amino acid sequence SEQ ID NO:4 subcutaneously (under the shoulder blade) in 100 microliter salt solution; • Groups 6 and 7: Mice 10 mg/kg/day or 1 mg/kg/day peptide of amino acid sequence SEQ ID NO:4 orally in 100 microliter salt solution; • Group 8: Rats, 10 microliter salt solution, intranasally; • Group 9: Rats. 0.1 mg/kg/day peptide of amino acid sequence SEQ ID NO:4 intranasally in 10 microliter salt solution.
After 14 days the animals were sacrificed and their liver, brain, kidneys and spleen were submitted for toxicity testing.

[8] = tested on: two brain tumor cell lines; experiment: leptin receptor antagonism in brain tumor cell lines; format: cell-based
[9] = tested on: ObR-positive cancer cells (brain and breast); format: cell-based; details: presence of exogenous leptin (6 nM)
[10] = 25% aqueous pooled mouse serum, 37° C., read-out: half-life in 25% serum
[11] = 100% pooled mouse serum, 37° C., read-out: half-life in 100% serum
[12] = mouse serum, read-out: half-life in mouse serum
[13] = ip bolus 0.5, 2 or 30 mg/kg, or 0.5 or 2 mg/kg/day for 10 days

Molecule: Alexa 680-labeled peptide of amino acid sequence SEQ ID NO:49: peptide of SEQ ID NO:49 labeled with the fluorescent dye Alexa 680 ([aThr]E[Nva]VALSR[Ahx]-NH2; not fully specified (N-terminus); printed as alloThr-Glu-Nva-Val-Ala-Leu-Ser-Arg-AcpNH2; also: Alexa 680 label, site not given here)
migration into further tissues, blood-brain barrier penetration [1]: migrated into the tail, limbs and the brain

Molecule: CCC[C@H](NC(=O)[C@H](CCCNC(=N)N)NC(=O)[C@H](CO)NC(=O)[C@H](CC(C)C)NC(=O)[C@H](C)NC(=O)[C@H](CCC)NC(=O)[C@H](CCC)NC(=O)[C@H](CCC(=O)O)NC(=O)[C@@H](NC(C)=O)[C@@H](C)O)C(N)=O [SEQ ID NO:48, AcNH-Thr-Glu-Nva-Nva-Ala-Leu-Ser-Arg-NvaNH2] (Ac-TE[Nva][Nva]ALSR[Nva]-NH2)
half-life (serum stability; [12]): 14 min | cell viability profile compared with the unprotected variant [3]: no change

Molecule: CCC[C@H](NC(=O)[C@H](CCCNC(=N)N)NC(=O)[C@H](CO)NC(=O)[C@H](CC(C)C)NC(=O)[C@H](C)NC(=O)[C@H](CCC)NC(=O)[C@H](CCC)NC(=O)[C@H](CCC(=O)O)NC(=O)[C@@H](N)[C@@H](C)O)C(N)=O [SEQ ID NO:47, Thr-Glu-Nva-Nva-Ala-Leu-Ser-Arg-NvaNH2] (H-TE[Nva][Nva]ALSR[Nva]-NH2)
half-life (serum stability; [12]): 8 min | EC50 [2]: > 1000 nM

Molecule: CCC[C@H](NC(=O)[C@H](CCC(=O)O)NC(=O)[C@@H](N)[C@@H](C)O)C(=O)N[C@H](C(=O)N[C@@H](C)C(=O)N[C@@H](CC(C)C)C(=O)N[C@@H](CO)C(=O)N[C@@H](CCCNC(=N)N)C(=O)NCCCCCC(N)=O)C(C)C [SEQ ID NO:4, Thr-Glu-Nva-Val-Ala-Leu-Ser-Arg-AcpNH2] (H-TE[Nva]VALSR[Ahx]-NH2)
NOAEL ([4]; female, Black/6, mouse, in vivo, ip, intraperitoneal bolus, read-out: highest studied dose found not toxic, acute): 30 mg/kg | NOAEL at 240 h ([4]; female, Black/6, mouse, in vivo, ip, intraperitoneal, 10 days, read-out: highest studied dose found not toxic, chronic): 2 mg/kg/day | gross necropsy, treated versus non-treated [4, 13]: no alteration | liver, brain, spleen and kidney weights, treated versus non-treated [4, 13]: identical | half-life (serum stability; [10]): 20 min | half-life (serum stability; [11]): 5 min | IC50 [5]: 2 to 3 nM | EC50 [2]: > 1000 nM | IC50 ([3]; 2 h): 2 to 3 nM | necropsy of the major organs ([6]; C57BL/6 mice): no signs of toxicity | toxic effects in liver, brain, kidneys and spleen [7]: No obvious toxic effects

B1: leptin: neurohormone, native ObR ligand; human leptin purchased from R&D Systems (protein, listed as Homo sapiens)
chain: VPIQKVQDDTKTLIKTIVTRINDISHTQSVSAKQRVTGLDFIPGLHPILSLSKMDQTLAVYQQVLTSLPSQNVLQIANDLENLRDLLHLLAFSKSCSLPQTSGLQKPESLDGVLEASLYSTEVVALSRLQGSLQDILQQLDVSPEC
reduction of normal weight gain compared to untreated mice ([6]; 0.1 mg/kg/day intraperitoneally, day 8): 5%

More lines, main results first:

half-life (serum stability; [10]): 40 min | half-life (serum stability; [11]): 10 min | EC50 [2]: > 1000 nM
Molecule: CCC[C@H](NC(=O)[C@H](CCC(=O)O)NC(=O)[C@@H](N)[C@H](C)O)C(=O)N[C@H](C(=O)N[C@@H](C)C(=O)N[C@@H](CC(C)C)C(=O)N[C@@H](CO)C(=O)N[C@@H](CCCNC(=N)N)C(=O)NCCCCCC(N)=O)C(C)C [SEQ ID NO:49, alloThr-Glu-Nva-Val-Ala-Leu-Ser-Arg-AcpNH2] (H-[aThr]E[Nva]VALSR[Ahx]-NH2)

EC50 [2]: > 1000 nM
Molecule: CCC[C@H](NC(=O)[C@H](CCC(=O)O)NC(=O)[C@@H](CO)NC(C)=O)C(=O)N[C@H](C(=O)N[C@@H](C)C(=O)N[C@@H](CC(C)C)C(=O)N[C@@H](CO)C(=O)N(C)[C@@H](CCCNC(=N)N)C(=O)NCCC(N)=O)C(C)C [SEQ ID NO:6, (D)-Ser-Glu-Nva-Val-Ala-Leu-Ser-N-MeArg-bAlaNH2] (Ac-[dS]E[Nva]VALS[NMeR][βAla]-NH2; N-terminus assumed)
agonistic activity [8]: no agonistic activity | cell growth without stimulation with leptin protein [8]: does not influence cell growth | IC100, antagonistic activity against the leptin receptor ([8]; two brain tumor cell lines in vitro): 10 to 100 pM | pharmacology [2]: super antagonist | IC100 [9]: <1 nM

EC50 [2]: > 500 nM
Molecule: CCC[C@H](NC(=O)[C@@H](N)CCC(=O)O)C(=O)N[C@H](C(=O)N[C@@H](C)C(=O)N[C@@H](CC(C)C)C(=O)N[C@@H](CO)C(=O)N[C@@H](CCCNC(=N)N)C(=O)NCCCCCC(N)=O)C(C)C [SEQ ID NO:51, Glu-Nva-Val-Ala-Leu-Ser-Arg-AcpNH2] (H-E[Nva]VALSR[Ahx]-NH2; N-terminus assumed)
pharmacology [2]: weak full | IC100 [9]: 100 nM
